The subject of one series is female db/db mice. As to the kind of experiment: blood sugar level depressing activity in dd/db mice. Conditions: dose 10 mg/kg, drug mixed with powder diet, given for 14 days, difference between db/db control group and +/+ mice taken as 100%. It is filed as in vivo. On the procedure: (blood sugar level depressing activity in dd/db mice)
Female C57BL/KsJ-dbm db+/db+, C57BL/KsJ-dbm +m/+m (Jackson Laboratory) mice (5 weeks old) were purchased and subjected to the test after 2-3 weeks of acclimating period.
The test drug was mixed with a powder diet (CE-2, Clea Japan, Inc.) in a mortar. In the case of administration in 100 mg/kg, the mixing proportion of the test drug to the diet was 0.1%, in the case of 30 mg/kg, the proportion was 0.03% and in the case of 10 mg/kg, the proportion was 0.01%. The diet was changed twice a week. The amount of the diet given and the amount left were recorded and the diet intake was calculated by determining the difference.
The female db/db mice were grouped according to body weight, blood sugar level and triglceride concentration in blood. […] The blood sugar value, triglyceride concentration in plasma and insulin concentration in plasma were measured at day 0 and day 14, and blood sugar value and triglyceride concentration in blood were measured at day 7. Body weight was measured at day 0, day 7 and day 14. […]
Blood sugar value was measured using 10-15 μl of plasma and in accord with glucose oxidase method glucose CII-test Waco, Waco Pure Chemicals Co., Ltd.). […] The insulin concentration in plasma was measured using 20 μl of plasma (preservable at −20° C.) and in accord with an antibody method (Phadesef Insulin RIA kit, Kabi Pharmacia). […]
For `CCCCCS(=O)(=O)NC(=O)c1ccc2oc(C)c(Cc3ccc(Cl)cc3Cl)c2c1` [Compound A, 3-(2,4-Dichlorobenzyl)-2-methyl-5-(1-n-pentanesulfonylcarbamoyl)-benzo[b]furan], the “Blood sugar decrease (%)” value was found to be 71%.

System in another series: not given
Assay: not given
Conditions: not given
Compound `Cc1nc2ccc(C(=O)NS(=O)(=O)c3ccc(Cl)s3)nc2n1Cc1ccc(C(F)(F)F)cc1Cl` [Example 109-3, 3-(2-chloro-4-(trifluoromethyl)-benzyl)-5-((5-chlorothiophen-2-yl)sulfonylcarbamoyl)-2-methyl-3H-imidazo[4,5-b]pyridine] registered a melting point of 170 to 171 °C. In the case of `Cc1nc2ccc(C(=O)NS(=O)(=O)c3ccc(Br)s3)nc2n1Cc1ccc(C(F)(F)F)cc1Cl` [Example 109-4, 5-((5-bromothiophen-2-yl)sulfonylcarbamoyl)-3-(2-chloro-4-(trifluoromethyl)benzyl)-2-methyl-3H-imidazo[4,5-b]pyridine], the melting point lay within 172 to 173 °C. As for `Cc1cc(C(=O)NS(=O)(=O)c2ccc(Br)s2)nc2c1nc(C)n2Cc1ccc2ccccc2c1Br` [Example 112, 3-(1-bromonaphthalen-2-ylmethyl)-5-((5-bromothiophene-2-yl)sulfonylcarbamoyl)-2,7-dimethyl-3H-imidazo[4,5-b]pyridine], the melting point fell in the range of 247 to 248 °C.

In turn, `Cc1nc2ccc(C(=O)NS(=O)(=O)c3ccccc3)nc2n1Cc1ccc(CCc2ccccc2)cc1Cl` [Example 113, 5-(benzenesulfonylcarbamoyl)-3-(2-chloro-4-(2-phenylethyl)benzyl)-2-methyl-3H-imidazo[4,5-b]pyridine] returned a melting point of 180 to 181 °C. On to `Cc1nc2ccc(C(=O)NS(=O)(=O)c3ccccc3)nc2n1Cc1ccc(CO)cc1Cl` [Example 115, 5-(Benzenesulfonylcarbamoyl)-3-(2-chloro-4-(hydroxymethyl)benzyl)-2-methyl-3H-imidazo[4,5-b]pyridine], for which the melting point lay within 198 to 199 °C. Same read-out and setting: the same measure for `Cc1nc2ccc(C(=O)NS(=O)(=O)c3ccccc3)nc2n1Cc1ccc(C(=O)O)cc1Cl` [Example 116, 5-(benzenesulfonylcarbamoyl)-3-(4-carboxy-2-chlorobenzyl)-2-methyl-3H-imidazo[4,5-b]pyridine]: 155 to 160 °C; for `Cc1nc2ccc(C(=O)NS(=O)(=O)c3ccccc3)nc2n1Cc1ccc(COc2ccccc2)cc1Cl` [Example 118, 5-(benzenesulfonylcarbamoyl)-3-(2-chloro-4-((phenyloxy)methyl)-benzyl)-2-methyl-3H-imidazo[4,5-b]pyridine]: 203 to 205 °C; for `CCOC(=O)c1ccc(Cn2c(C)nc3ccc(C(=O)NS(=O)(=O)c4ccccc4)nc32)c(Cl)c1` [Example 119, 5-(benzenesulfonylcarbamoyl)-3-(2-chloro-4-(ethoxycarbonyl)benzyl)-2-methyl-3H-imidazo[4,5-b]pyridine]: 196 to 197 °C. `CNC(=O)c1ccc(Cn2c(C)nc3ccc(C(=O)NS(=O)(=O)c4ccccc4)nc32)c(Cl)c1` [Example 120, 5-(Benzenesulfonylcarbamoyl)-3-(2-chloro-4-(methylcarbamoyl)benzyl)-2-methyl-3H-imidazo[4,5-b]pyridine] displayed a melting point of 257 to 260 °C. In the case of `Cc1cc(C(=O)NS(=O)(=O)c2ccccc2)nc2c1nc(C)n2Cc1ccc(Br)cc1Cl` [Example 121, 5-(Benzenesulfonylcarbamoyl)-3-(4-bromo-2-chlorobenzyl)-2,7-dimethyl-3H-imidazo[4,5-b]pyridine], the melting point was in the range of 231 to 232 °C.

With `CSc1ccc(Cn2c(C)nc3ccc(C(=O)NS(=O)(=O)/C=C/c4ccccc4)nc32)c(Cl)c1` [Example 148, 3-(2-chloro-4-(methylthio)benzyl)-2-methyl-5-(E)-[(2-phenylethenyl)sulfonylcarbamoyl]-3H-imidazo[4,5-b]pyridine], the melting point was in the range of 175 to 176 °C.

The compound `CSc1ccc(Cn2c(C)nc3ccc(C(=O)NS(=O)(=O)c4ccc(Cl)s4)nc32)c(Cl)c1` [Example 149, 3-(2-chloro-4-(methylthio)benzyl)-5-[(5-chlorothiophen-2-yl)sulfonylcarbamoyl]-2-methyl-3H-imidazo[4,5-b]pyridine] displayed a melting point of 170 to 171 °C.

`CSc1ccc(Cn2c(C)nc3ccc(C(=O)NS(=O)(=O)c4ccc(Br)s4)nc32)c(Cl)c1` [Example 150, 3-[2-chloro-4-(methylthio)benzyl]-5-[(5-bromothiophen-2-yl)sulfonylcarbamoyl]-2-methyl-3H-imidazo[4,5-b]pyridine]: the melting point is 169 to 170 °C. The compound `CCCCCS(=O)(=O)NC(=O)c1ccc2nc(C)n(Cc3ccc(SC)cc3Cl)c2n1` [Example 151, 3-(2-chloro-4-(methylthio)benzyl)-2-methyl-5-(1-pentanesulfonylcarbamoyl)-3H-imidazo[4,5-b]pyridine] came in with a melting point of 184 to 185 °C. On the same count and under the same terms, the same measure for `CCCCCS(=O)(=O)NC(=O)c1cc(C)c2nc(C)n(Cc3ccc(-c4ccccc4)cc3Cl)c2n1` [Example 184, 3-(2-chloro-4-phenylbenzyl)-2,7-dimethyl-5-(1-pentanesulfonylcarbamoyl)-3H-imidazo[4,5-b]pyridine]: 227 to 228 °C; for `Cc1cc(C(=O)NS(=O)(=O)c2ccc(Cl)s2)nc2c1nc(C)n2Cc1ccc(-c2ccccc2)cc1Cl` [Example 185, 3-(2-chloro-4-phenylbenzyl)-5-[(5-chlorothiophen-2-yl)sulfonylcarbamoyl]-2,7-dimethyl-3H-imidazo[4,5-b]pyridine]: 241 to 242 °C; for `Cc1cc(C(=O)NS(=O)(=O)c2ccc(Br)s2)nc2c1nc(C)n2Cc1ccc(-c2ccccc2)cc1Cl` [Example 186, 5-[(5-bromothiophen-2-yl)sulfonylcarbamoyl]-3-(2-chloro-4-phenylbenzyl)-2,7-dimethyl-3H-imidazo[4,5-b]pyridine]: 243 to 244 °C. In the case of `CCCCCS(=O)(=O)NC(=O)c1cc(C)c2nc(C)n(Cc3ccc(-c4cccs4)cc3Cl)c2n1` [Example 188, 3-[2-chloro-4-(thiophen-2-yl)benzyl]-2,7-dimethyl-5-(1-pentanesulfonylcarbamoyl)-3H-imidazo[4,5-b]pyridine], the melting point lay in the range of 220 to 224 °C. `CCCCCS(=O)(=O)NC(=O)c1cc(C)c2nc(C)n(Cc3ccc(-c4ccc(Cl)s4)cc3Cl)c2n1` [Example 193, 3-[2-chloro-4-(5-chlorothiophen-2-yl)benzyl]-2,7-dimethyl-5-(1-pentanesulfonylcarbamoyl)-3H-imidazo[4,5-b]pyridine] showed a melting point of 215 to 217 °C.

The compound `Cc1cc(C(=O)NS(=O)(=O)/C=C/c2ccccc2)nc2c1nc(C)n2Cc1ccc(-c2ccc(Cl)s2)cc1Cl` [Example 196, 3-[2-chloro-4-(5-chlorothiophen-2-yl)benzyl]-2,7-dimethyl-5-[(E)-(2-phenylethenyl)sulfonylcarbamoyl]-3H-imidazo[4,5-b]pyridine] showed a melting point of 224 to 225 °C.

Values taken from US6911469B2, “Sulfonamide compounds and pharmaceutical use thereof” (Fujisawa Pharmaceutical Co., Ltd., priority 1997, dated 2005).
